Experimental data reported in patent US20130231305A1, “Method of Modulating Protein 14-3-3 Functionality By Facilitating or Inhibiting Phosphorylation” (Medvet Science Pty. Ltd., priority 2010, published 2013).
Changes are numbered by the printed parent chain.

Assays:
14-3-3ζ = target: T1, 14-3-3ζ (Homo sapiens, UniProt P63104); test: 14-3-3 phosphorylation by PKA catalytic subunit (autoradiography); format: biochemical; settings: increasing concentrations of FTY720, FIG. 9C
T1 construct: made in house
T1 sequence (P63104 1-245): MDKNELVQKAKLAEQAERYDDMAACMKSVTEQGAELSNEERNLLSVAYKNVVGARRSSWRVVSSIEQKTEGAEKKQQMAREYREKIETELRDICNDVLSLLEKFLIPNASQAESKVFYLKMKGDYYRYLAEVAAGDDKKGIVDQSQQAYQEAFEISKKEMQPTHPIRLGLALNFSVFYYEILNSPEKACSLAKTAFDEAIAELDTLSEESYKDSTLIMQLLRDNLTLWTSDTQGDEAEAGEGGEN

14-3-3ζ D20N mutant = target: T2, 14-3-3ζ D20N mutant (Homo sapiens, UniProt P63104, D20N); test: Phosphorylation of D20N mutant 14-3-3ζ by PKA catalytic subunit with FTY720; format: biochemical; settings: increasing concentrations of FTY720, FIG. 9C
T2 construct: made in house
T2 sequence (P63104 1-245 D20N): T1 sequence (P63104 1-245) with D20N
Text: FIG. 9 A depicts a side view of 14-3-3ζ in space filling representation indicating the orientation of view B. The monomer units (in green and orange) and interacting phospho-peptides, (in cyan) bound in the dual amphipathic grooves are shown. B. Bottom-up view of 14-3-3ζ with the location of S58 phosphorylation site (indicated by arrows and asterisk) and key surface acidic (in yellow) and basic (in blue) residues shown. C. In vitro phosphorylation of 14-3-3ζ wild type and mutants as indicated by catalytic PKA subunit in the presence of increasing concentrations of FTY720. […] D. Mutant 14-3-3 (as indicated) was analysed by native-PAGE and Coomassie staining. The arrow indicates the migration of dimeric 14-3-3 protein. E. A schematic representation of a 14-3-3 dimer showing the buried S58 phosphorylation site in pink, D20, the residue proposed to interact with sphingolipid in yellow and the predicted salt bridge interactions involved in dimerisation. F. & G. In silico docking of FTY720 (shown in cyan in F.) and sphingosine (in pink in G.) in 14-3-3ζ dimer interface.
The dimer interface of 14-3-3 proteins lies at the bottom of the phospho-serine binding groove and comprises a central hole of around 10 Å in diameter in which the Ser58 phosphorylation site is positioned (FIG. 9B, indicated by *). […]

14-3-3 isoforms = test: Phosphorylation of recombinant 14-3-3 isoforms by PKA catalytic subunit; format: biochemical; settings: 50 μM in 0.1% ethanol
Experimental: FIG. 3 is an image depicting that sphingosine is required for the phosphorylation of multiple 14-3-3 isoforms in the third helix. (A) Primary sequence alignment of 14-3-3 isoforms in the third helix showing conservation of a Ser phosphorylation site (shown in bold). Asterisks indicate identical amino acids. (B) Recombinant 14-3-3 isoforms were incubated with PKA catalytic subunit in the presence of 50 μM sphingosine, dimethyl-sphingosine (DMS) or FTY 720 (FTY) delivered in 0.1% ethanol (EtOH). Phosphorylated 14-3-3s were detected by autoradiography. Gels were coomassie stained to show equal loading of 14-3-3 substrate.
Substrate 14-3-3 (either 0.5 μg of purified recombinant 14-3-3, a […] of fractions from gel filtration or immunoprecipitates from 14-3-3ζ-Myc transfected COS cells) were added to reaction mixture comprising 0.2 Units of the PKA catalytic subunit, in the presences or absence of sphingolipid (delivered in 0.1% v/v ethanol) in PICA reaction buffer (20 mM MOPS, pH 7.4, 20 mM β-glycerol phosphate, 4 mM EGTA, 1 mM Na3VO4, 60 mM MgCl2, 1 mM DTT, 500 μM ATP, 2.4 μCi [^32P]γ-ATP). Reactions were incubated at 37° C. for 15 minutes. After incubation, reactions were separated on 12.5% SDS-PAGE, coomassie stained and 14-3-3 phosphorylation analysed by autoradiography.

Jurkat cells = test: Jurkat cell apoptosis (TMRE staining, NucView caspase activity); format: cell-based; settings: 2 μM
Text: (A) Immunoblotting of lysates from either parental Jurkat cells (Jurkat) or cells transduced with lentivirus encoding either wild type (Wt) or S58A 14-3-3ζ-Myc with either an anti-14-3-3ζ specific antibody (upper panel) or an anti-pan 14-3-3 antibody (middle panel) to compare the expression level of transduced protein. Myc immunoprecipitates were also immunoblotted with an anti-phospho 14-3-3 binding site antibody (lower panel) to detect proteins associated with 14-3-3ζ-Myc. Endogenous 14-3-3 is indicated by an open arrow and exogenous 14-3-3ζ-Myc with a closed arrow. (B) Lysates from either wild type (Wt) or S58A 14-3-3ζ-Myc expressing Jutkat cells were subjected to in vitro PKA phosphorylation in the presence (+) or absence (−) of […] and the samples immunoblotted after SDS-PAGE separation With either anti-Myc antibody (upper panel), anti-14-3-3ζ antibody (middle panel) or anti-phospho Ser58 14-3-3ζ antibody (lower panel). (C) Serum-starved Jurkat cells were treated with 2 μM FTY720 for 4 h prior to staining with TMRE and NucView™. Forward- versus side-scatter plots (FS versus SS) show the viable cell populations for FTY720 and EtOH (vehicle) treated cells which are analysed in the lower histograms for caspase activity (NucView™) versus ΔΨM (TMRE). (D and E) Jurkat cell lines expressing either wild type or S58A 14-3-3ζ-Myc by lentiviral transduction were serum-starved for 2 h and treated with either 0.1% ethanol vehicle alone (EtOH), 2 μM dimethyl-sphingosine (DMS), or 2 μM FTY720. Cells were analysed by TMRE staining at 4 h (D) or at the time points indicated (E). (D) Representative analyses of TMRE staining with forward- versus side-scatter plots inset to show the similarity in cell populations. (E) Graphical representation of TMRE analysis over time with open symbols representing vehicle (0.1% EtOH) treated cells and closed symbols representing FTY720 treated cells. […]
FIG. 11. […] Effect of TMAs on Jurkat cells after 16 hours incubation assessed by ΔΨM (TMRE) and caspase 3 activity (NucView™) analysis. […] Forward-side-scatter histograms showing cell viability are inset and caspase 3 activity as assessed by NucView™ analysis of viable cells shown. E. Examples of TMA-derivatives of FTY720 that will be analysed for effects on 14-3-3 dimer stability and apoptosis.
Having confirmed appropriate expression and behaviour of Myc-tagged wild type and S58A 14-3-3ζ in the Jurkat lines, these cells were utilised in functional studies to determine the effect of S58A 14-3-3ζ expression on cell survival in response to sphingosine analogues. […] Intriguingly, Jurkat cells expressing S58A 14-3-3ζ-Myc consistently underwent commitment to apoptosis (as detected by the loss of TMRE staining) more slowly than those expressing wild type 14-3-3ζ-Myc (FIG. 8D).

[1] = 4 h, serum-starved Jurkat cells

Structure (SMILES): CCCCCCCCc1ccc(CCC(N)(CO)CO)cc1 [FTY720]
- phosphorylatability of wild-type 14-3-3ζ by PKA catalytic subunit (14-3-3ζ): increasing phosphorylatability
- phosphorylatability of D20N 14-3-3ζ by PKA catalytic subunit (14-3-3ζ D20N mutant): only weakly phosphorylatable
- phosphorylation of 14-3-3 isoforms by PKA catalytic subunit (14-3-3 isoforms): behaved similarly to sphingosine and DMS in modulating 14-3-3 for phosphorylation
- caspase-3 activity (NucView) (Jurkat cells; [1]): activation of caspase-3
- commitment to apoptosis (loss in TMRE staining) (Jurkat cells; [1]): rapid commitment to apoptosis
- commitment to apoptosis in S58A versus wild type 14-3-3ζ-Myc expressing cells (TMRE) (Jurkat cells; Jurkat cells expressing S58A 14-3-3ζ-Myc): delayed mitochondrial permeability transition
